From patent US5618537A, “Plant-based medicaments for increasing the tone and modulating the tone of the smooth muscular organ” (Steigerwald Arzneimittelwerk GmbH, priority 1991, dated 1997) come the findings set out here.

One assay has as its system carrageenan oedema. The assay is described as follows: Carrageenan oedema model of the rat (paw volume, plethysmometer). The format is in vivo. To be noted: 4 mg/kg of body wt., 1/2 h before induction. How it is done:
The carrageenan oedema model of the rat is an internationally recognised pharmacological method for uncovering clinically relevant anti-inflammatory agents.
The test substances were administered 1/2 h before induction of oedema; the control animals received the solvent (30% ethanol). The paw volume was measured with a plethysmometer before (0 value) oedema induction and 1, 2, 3, 4 and 6 hours after.
The anti-inflammatory action of the test substances was calculated according to the formula [formula] V=average value of the differences from the 0 value: drug group K=average value of the differences from the 0 value; control group
(Carrageenan injected into the paw causes an acute inflammation.)

For another assay, the system named is guinea-pig ileum. The assay is described as follows: Increase in basal tone of resting isolated guinea-pig ileum (Magnus model). Also noted: unit not given here. To be noted: 40 μg/l; for Contraction induced by acetylcholine, Average value: average of 6.

As to `COc1ccc2c(c1)c(CC(=O)O)c(C)n2C(=O)c1ccc(Cl)cc1` [Indomethacin], the “% inhibition of carrageenan oedema” value with carrageenan oedema (1 h after oedema induction) was determined as 24.0%; in the assay on carrageenan oedema (2 h after oedema induction), 23.5%; with carrageenan oedema (3 h after oedema induction), 35.0%; in the assay with carrageenan oedema (4 h after oedema induction) it was 47.5%; in the assay on carrageenan oedema (6 h after oedema induction), 61.3%.

On to `CC(=O)OCC[N+](C)(C)C` [Acetylch., acetylcholine], for which the “Contraction induced by acetylcholine (comparison for increase in basal tone)” value in the assay on guinea-pig ileum (Table 2 series (STW 5-II), Expt. 1) is 10.1; with guinea-pig ileum (Table 2 series (STW 5-II), Expt. 2) it was 14.6; in the assay on guinea-pig ileum (Table 2 series (STW 5-II), Expt. 3), 11.7; in the assay with guinea-pig ileum (Table 2 series (STW 5-II), Expt. 4) it was 14.0; in the assay on guinea-pig ileum (Table 2 series (STW 5-II), Expt. 5), 12.7; with guinea-pig ileum (Table 2 series (STW 5-II), Expt. 6) it was 8.6. For the same compound, the “Contraction induced by acetylcholine (comparison for increase in basal tone)” value in the assay on guinea-pig ileum (Table 3 series (STW 5), Expt. 1) was 11.8; in the assay with guinea-pig ileum (Table 3 series (STW 5), Expt. 2) it was 6.3; with guinea-pig ileum (Table 3 series (STW 5), Expt. 3), 12.1; with guinea-pig ileum (Table 3 series (STW 5), Expt. 4) it was 9.9; in the assay with guinea-pig ileum (Table 3 series (STW 5), Expt. 5) it was 12.2; in the assay with guinea-pig ileum (Table 3 series (STW 5), Expt. 6), 5.9. The “Contraction induced by acetylcholine, Average value” in the assay with guinea-pig ileum (Table 2 series (STW 5-II)) is listed as 11.95; in the assay on guinea-pig ileum (Table 3 series (STW 5)) it was 9.70.
